#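 1) Cells in 96-well plates. 2) Compound, 48 h, 5 concentrations. 3) Linear interpolation between surrounding doses. 4) Unreached endpoint = highest concentration. The concentration for full growth arrest is given as TGI.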
# Legend:
# Assay in all cases: NCI tumour cell line growth inhibition, 48 h
# [1] = tested on: M19-MEL melanoma
# [2] = tested on: UACC-62 melanoma
# [3] = tested on: HCT-15 colon
# [4] = tested on: SR leukemia
# [5] = tested on: K-562 leukemia
# [6] = tested on: OVCAR-4 ovarian
# [7] = tested on: SK-MEL-28 melanoma
# [8] = tested on: OVCAR-3 ovarian
# [9] = tested on: NCI/ADR-RES ovarian
# [10] = tested on: SN12C renal
# [11] = tested on: SK-MEL-2 melanoma
# [12] = tested on: IGROV1 ovarian
# [13] = tested on: BT-549 breast
# [14] = tested on: OVCAR-5 ovarian
# [15] = tested on: DLD-1 colon
# [16] = tested on: DU-145 prostate
# [17] = tested on: HS 578T breast
# [18] = tested on: RXF 393 renal
# [19] = tested on: SK-OV-3 ovarian
# [20] = tested on: HOP-62 NSCLC
# [21] = tested on: A549 NSCLC
# [22] = tested on: HT29 colon
# [23] = tested on: HCT-116 colon
# [24] = tested on: MALME-3M melanoma
# [25] = tested on: MDA-MB-435
# [26] = tested on: XF 498 CNS
# [27] = tested on: RPMI-8226 leukemia
# [28] = tested on: LOX IMVI melanoma
# [29] = tested on: EKVX NSCLC
# [30] = tested on: M14 melanoma
# [31] = tested on: SNB-19 CNS
# [32] = tested on: CCRF-CEM leukemia
# [33] = tested on: NCI-H522 lung
# [34] = tested on: MOLT-4 leukemia
# [35] = tested on: UO-31 renal
# [36] = tested on: KM12 colon
# [37] = tested on: NCI-H23 lung
# [38] = tested on: SF-539 CNS
# [39] = tested on: SF-268 CNS
# [40] = tested on: SF-295 CNS
# [41] = tested on: SNB-78 CNS
# [42] = tested on: NCI-H460 lung
# [43] = tested on: PC-3 prostate
# [44] = tested on: COLO 205 colon
# [45] = tested on: SW-620 colon
# [46] = tested on: DMS 114 small cell lung
# [47] = tested on: HOP-18 NSCLC
# [48] = tested on: NCI-H226 lung
# [49] = tested on: HL-60(TB) leukemia
# [50] = tested on: CAKI-1 renal
# [51] = tested on: MDA-N
# [52] = tested on: SNB-75 CNS
# [53] = tested on: RXF-631 renal
# [54] = tested on: MDA-MB-231 breast
# [55] = tested on: T-47D breast
# [56] = tested on: MCF7 breast
# [57] = tested on: HOP-92 NSCLC
# [58] = tested on: HCC-2998 colon
# [59] = tested on: 786-0 renal
# [60] = tested on: ACHN renal
# [61] = tested on: TK-10 renal
# [62] = tested on: KM20L2 colon
# [63] = tested on: LXFL 529 NSCLC
# [64] = tested on: UACC-257 melanoma
# [65] = tested on: SK-MEL-5 melanoma
# [66] = tested on: U251 CNS
# [67] = tested on: A498 renal
# [68] = tested on: OVCAR-8 ovarian
# [69] = tested on: DMS 273 small cell lung
# [70] = tested on: P388/ADR leukemia
# [71] = tested on: SN12K1 renal
# [72] = tested on: P388 leukemia
smiles,measurement,setting,value
COc1ccc2c(c1)[n+]([O-])c(/C(C)=N/NC(N)=S)c(C)[n+]2[O-],TGI,[1],> 100 µM
same,TGI,[2],> 100 µM
same,TGI,[3],> 100 µM
same,TGI,[4],61.5 µM
same,TGI,[5],> 100 µM
same,TGI,[6],> 100 µM
same,TGI,[7],> 100 µM
same,TGI,[8],> 95.7 µM
same,TGI,[9],96.5 µM
same,TGI,[10],> 100 µM
same,TGI,[11],> 100 µM
same,TGI,[12],> 100 µM
same,TGI,[13],> 100 µM
same,TGI,[14],> 100 µM
same,TGI,[15],> 100 µM
same,TGI,[16],> 100 µM
same,TGI,[17],> 100 µM
same,TGI,[18],> 100 µM
same,TGI,[19],> 100 µM
same,TGI,[20],> 100 µM
same,TGI,[21],> 100 µM
same,TGI,[22],> 100 µM
same,TGI,[23],> 93.2 µM
same,TGI,[24],> 100 µM
same,TGI,[25],> 100 µM
same,TGI,[26],> 100 µM
same,TGI,[27],> 100 µM
same,TGI,[28],> 100 µM
same,TGI,[29],> 100 µM
same,TGI,[30],> 100 µM
same,TGI,[31],> 100 µM
same,TGI,[32],> 100 µM
same,TGI,[33],> 100 µM
same,TGI,[34],> 83.8 µM
same,TGI,[35],> 100 µM
same,TGI,[36],> 100 µM
same,TGI,[37],> 100 µM
same,TGI,[38],97.9 µM
same,TGI,[39],> 100 µM
same,TGI,[40],> 100 µM
same,TGI,[41],> 100 µM
same,TGI,[42],> 71.4 µM
same,TGI,[43],> 100 µM
same,TGI,[44],> 100 µM
same,TGI,[45],> 100 µM
same,TGI,[46],> 100 µM
same,TGI,[47],> 100 µM
same,TGI,[48],> 100 µM
same,TGI,[49],> 100 µM
same,TGI,[50],> 100 µM
same,TGI,[51],> 100 µM
same,TGI,[52],> 100 µM
same,TGI,[53],> 100 µM
same,TGI,[54],> 100 µM
same,TGI,[55],> 100 µM
same,TGI,[56],> 100 µM
same,TGI,[57],> 100 µM
same,TGI,[58],> 66.7 µM
same,TGI,[59],> 100 µM
same,TGI,[60],> 100 µM
same,TGI,[61],> 100 µM
same,TGI,[62],> 100 µM
same,TGI,[63],> 100 µM
same,TGI,[64],> 100 µM
same,TGI,[65],> 69.1 µM
same,TGI,[66],> 100 µM
same,TGI,[67],> 100 µM
same,TGI,[68],> 100 µM
ClCCN(CC#CCCCC#CCN(CCCl)CCCl)CCCl,TGI,[1],29.5 µM
same,TGI,[2],20 µM
same,TGI,[3],27.2 µM
same,TGI,[4],7.66 µM
same,TGI,[5],37.7 µM
same,TGI,[6],61.2 µM
same,TGI,[7],38.6 µM
same,TGI,[8],26.7 µM
same,TGI,[9],58.1 µM
same,TGI,[10],21.2 µM
same,TGI,[11],23.4 µM
same,TGI,[12],35.1 µM
same,TGI,[14],26 µM
same,TGI,[15],35.7 µM
same,TGI,[18],33.5 µM
same,TGI,[19],27.8 µM
same,TGI,[20],29.3 µM
same,TGI,[21],31.8 µM
same,TGI,[22],24.8 µM
same,TGI,[23],25.3 µM
same,TGI,[69],16.6 µM
same,TGI,[24],32.5 µM
same,TGI,[27],13.4 µM
same,TGI,[28],20.9 µM
same,TGI,[29],44.8 µM
same,TGI,[30],28.6 µM
same,TGI,[31],27.6 µM
same,TGI,[70],9.09 µM
same,TGI,[32],10.6 µM
same,TGI,[33],21.7 µM
same,TGI,[34],6.59 µM
same,TGI,[35],47 µM
same,TGI,[36],44.4 µM
same,TGI,[37],29.3 µM
same,TGI,[38],27 µM
same,TGI,[39],33.5 µM
same,TGI,[40],28.1 µM
same,TGI,[41],57.5 µM
same,TGI,[42],16.3 µM
same,TGI,[44],30.3 µM
same,TGI,[45],23.3 µM
same,TGI,[46],15.8 µM
same,TGI,[47],44.5 µM
same,TGI,[48],37.2 µM
same,TGI,[49],7.18 µM
same,TGI,[50],32.7 µM
same,TGI,[52],36.4 µM
same,TGI,[53],23.8 µM
same,TGI,[56],37.5 µM
same,TGI,[57],43.1 µM
same,TGI,[58],32.9 µM
same,TGI,[59],20.7 µM
same,TGI,[60],15.2 µM
same,TGI,[61],41 µM
same,TGI,[62],27.7 µM
same,TGI,[63],28.3 µM
same,TGI,[64],29.2 µM
same,TGI,[65],24.3 µM
same,TGI,[71],25.3 µM
same,TGI,[66],23.8 µM
same,TGI,[72],9.73 µM
same,TGI,[67],26.4 µM
same,TGI,[68],23.9 µM
